From patent US11208412B2 (DAEGU-GYEONGBUK MEDICAL INNOVATION FOUNDATION, priority 2017, dated 2021) come the findings set out here.

Common to all, as to assay: Kinase selectivity, DiscoverX scanMAX Kinase assay panel (% control)
Holding throughout (format): binding

Test [1] concerns the target T1, kinases of the scanMAX Kinase assay panel (Homo sapiens, UniProt P51955).
T1 construct: purchased DiscoverX Co. (contract measurement) scanMAX Kinase assay panel
T1 sequence (P51955 1-445): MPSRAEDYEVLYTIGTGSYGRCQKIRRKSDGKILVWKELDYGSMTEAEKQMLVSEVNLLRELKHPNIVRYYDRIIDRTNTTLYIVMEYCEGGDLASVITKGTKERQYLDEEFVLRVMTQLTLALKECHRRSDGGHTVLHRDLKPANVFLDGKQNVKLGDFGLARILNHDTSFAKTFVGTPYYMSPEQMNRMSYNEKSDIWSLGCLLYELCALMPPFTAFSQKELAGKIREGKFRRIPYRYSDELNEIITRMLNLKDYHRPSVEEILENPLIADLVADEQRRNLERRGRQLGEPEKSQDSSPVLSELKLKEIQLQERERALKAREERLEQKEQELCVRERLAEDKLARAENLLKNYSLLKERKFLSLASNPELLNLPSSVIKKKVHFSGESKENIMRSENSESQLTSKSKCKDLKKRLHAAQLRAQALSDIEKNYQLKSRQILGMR
Particulars: NEK2; 1 uM. In outline:
(§1)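 Single-point screen, 1 uM cpd in DMSO. % ctrl = (cpd − pos ctrl)/(neg ctrl − pos ctrl)×100; pos ctrl = 0%, DMSO neg ctrl = 100%. Hit cutoff <35%.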

For test [2], the target named is T2, kinases of the scanMAX Kinase assay panel (Homo sapiens, UniProt Q99640).
T2 construct: purchased DiscoverX Co. (contract measurement) scanMAX Kinase assay panel
T2 sequence (Q99640 1-499): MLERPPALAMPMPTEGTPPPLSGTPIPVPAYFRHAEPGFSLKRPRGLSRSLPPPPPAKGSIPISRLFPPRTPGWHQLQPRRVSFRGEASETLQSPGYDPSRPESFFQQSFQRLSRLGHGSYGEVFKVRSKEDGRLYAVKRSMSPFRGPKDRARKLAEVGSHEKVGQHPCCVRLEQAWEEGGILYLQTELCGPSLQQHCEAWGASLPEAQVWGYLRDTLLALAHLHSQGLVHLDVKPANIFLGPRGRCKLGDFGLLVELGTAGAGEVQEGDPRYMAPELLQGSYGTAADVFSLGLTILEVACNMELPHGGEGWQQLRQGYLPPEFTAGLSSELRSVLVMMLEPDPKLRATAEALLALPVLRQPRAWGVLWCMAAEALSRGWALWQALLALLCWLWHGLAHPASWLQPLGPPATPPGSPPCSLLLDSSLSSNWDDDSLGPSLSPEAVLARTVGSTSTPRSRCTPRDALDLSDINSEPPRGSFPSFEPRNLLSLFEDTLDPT
To be noted: PKMYT1; 1 uM. In outline: as §1

Test [3] addresses T3, kinases of the scanMAX Kinase assay panel (Homo sapiens, UniProt O15146).
T3 construct: purchased DiscoverX Co. (contract measurement) scanMAX Kinase assay panel
T3 sequence (O15146 24-869): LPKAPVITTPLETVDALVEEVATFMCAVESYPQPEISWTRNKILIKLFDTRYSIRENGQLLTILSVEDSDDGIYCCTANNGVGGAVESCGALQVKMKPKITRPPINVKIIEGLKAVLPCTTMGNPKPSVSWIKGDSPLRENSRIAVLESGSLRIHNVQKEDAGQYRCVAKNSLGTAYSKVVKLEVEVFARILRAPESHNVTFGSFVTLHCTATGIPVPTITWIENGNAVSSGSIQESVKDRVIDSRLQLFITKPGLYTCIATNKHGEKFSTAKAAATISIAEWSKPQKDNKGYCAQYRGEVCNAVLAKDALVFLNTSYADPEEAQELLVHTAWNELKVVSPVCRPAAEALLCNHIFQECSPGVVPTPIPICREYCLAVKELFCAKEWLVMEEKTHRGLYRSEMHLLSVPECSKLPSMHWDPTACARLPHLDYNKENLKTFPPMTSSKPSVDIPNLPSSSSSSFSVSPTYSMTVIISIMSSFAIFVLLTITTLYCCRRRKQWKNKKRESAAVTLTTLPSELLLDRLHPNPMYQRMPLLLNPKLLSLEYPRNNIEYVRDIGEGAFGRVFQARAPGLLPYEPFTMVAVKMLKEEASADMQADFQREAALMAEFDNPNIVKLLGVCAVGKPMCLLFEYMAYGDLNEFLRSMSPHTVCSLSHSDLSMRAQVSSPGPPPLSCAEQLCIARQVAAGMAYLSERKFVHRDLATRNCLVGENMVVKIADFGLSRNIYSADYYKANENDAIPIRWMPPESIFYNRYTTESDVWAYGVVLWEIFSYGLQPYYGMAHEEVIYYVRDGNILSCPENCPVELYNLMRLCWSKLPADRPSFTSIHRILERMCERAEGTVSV
Particulars: MUSK; 1 uM. In outline:
as §1

For `CNc1nc(Nc2ccc(C(=O)N3CCOCC3)cc2OC)nc2[nH]cc(C#N)c12` [Example 1, 2-((2-methoxy-4-(morpholine-4-carbonyl)phenyl)amino)-4-(methylamino)-7H-pyrrolo[2,3-d]pyrimidine-5-carbonitrile], the remaining binding at 1 µM in test [1] is 97%; in test [2], 99%; in test [3], 97%.
As for `CC1(Nc2nc(Nc3cnn([C@H]4CCN(C5COC5)C[C@@H]4F)c3Cl)nc3[nH]cc(C#N)c23)CC1` [Example 52, 2-((5-chloro-1-((3S,4S)-3-fluoro-1-(oxetane-3-yl)piperidine-4-yl)-1H-pyrazole-4-yl)amino)((1-methylcyclopropyl)amino)-7H-pyrrolo[2,3-d]pyrimidine-5-carbonitrile], the remaining binding at 1 µM in test [1] amounted to 70%; in test [2] it was 89%; in test [3], 100%.
On the same counts, the results for `CCNc1nc(Nc2ccc(C(=O)N3CCC(N4CCOCC4)CC3)cc2OC)nc2[nH]cc(C(F)(F)F)c12` [Example 104, (4-((4-(ethylamino)-5-(trifluoromethyl)-7H-pyrrolo[2,3-d]pyrimidine-2-yl)amino)-3-methoxyphenyl)(4-morpholinopiperidine-1-yl)methanone] are 74%, 100% and 94%.
